Measured values: patent EP1164141A2, “Opioid peptides and their use for treatment of pain” (AstraZeneca AB, priority 1994, dated 2001)
Square brackets hold non-standard residues; d marks the D form. Peptide text beside a SMILES is read from it. dNva = CCC[C@@H](N)C(=O)O

Legend:
[1] = system: mice; assay: PBQ (phenylquinone) induced writhing assay; assay type: in vivo; set-up: ED50 value: unit not given beside the values; conditions: for ED50 value: as shown in Table 1, PBQ writhing, unit not given; for peripheral analgesia: statement in words, writhing compared with hot plate
From the text: (§1) The term "ED50" as shown in table 1 for the PBQ writhing assays is defined as the dose of drug which induces a 50% reduction in the number of writhes observed compared to the control. The term "ED50" used in the hot-plate assays is defined as the dose of drug required to increase the latency of response 2-fold compared to controls and was determind by parallel-line probit analysis.
(§2) PBQ (phenyl-ρ-benzoquinone) induced writhing in mice is an assessment of both central and peripheral analgesia. For experimental protocol see Sigmund et al., Proc. Soc. Exp. Biol. Med., 95, p. 729 (1957) which is incorporated herein by reference. Central analgesia was determined by the inhibition of a hot plate response in mice. For experimental protocol see G. Woolfe and A. Macdonald, J. Pharmacol. Exp. Ther., 80, p.300 (1944) which is incorporated herein by reference. Assays measuring opioid receptor binding affinities for µ and δ receptors as well as GPI and MVD assays were determined through experimental protocol set out in Schiller et al., Biophys. Res. Commun., 85, p.1322 (1975) incorporated herein by reference.
The test was performed on CD #1 male mice weighing between 18 and 22g. The mice were weighed and marked. They were injected, by intra-peritoneal route, with 0.3ml/20g by weight with a solution of phenylquinone at 0.02%. The contortions which appeared during a 15 minute time period following the injection were counted. The phenylquinone was injected at time intervals of 5, 20 or 60 minutes after administration of the compound (or medium, or standard) by subcutaneous route. It was injected at time intervals of 60 minutes after the administration of the compound (or medium, or standard) by oral route;
The 0.02% phenylquinone^3 solution was prepared in the following fashion. 20mg of phenylquinone was dissolved in 5ml ethanol 90% (sigma, reagent, alcohol). The dissolved phenylquinone was slowly added to 95 ml of distilled water continuously shaken and preheated (not boiled). The phenylquinone solution was, at all times protected from light and a new solution was prepared every day for the test. It is recommended to wait 2 hours before using the phenylquinone solution. ** 2-phenyl-1,4-benzoquinone (Sigma)
The test may be carried out on 5 mice at the same time. Each group usually contained 10 mice. If an antagonist, such as naloxone, was used, it was administered 20 minutes before the compound (or the medium, or the standard) by intra-peritoneal route.

[2] = system: mice; assay: hot plate test (central analgesia); assay type: in vivo; conditions: for central analgesic effect: mouse hot plate test, even at doses of 100 mg/kg
From the text: as §1, §2
For this test, CD #1 male mice weighing between 20 and 25g were used. The mice were weighed, marked, and divided into groups of 10.
The mice were usually treated by subcutaneous injection of the compound (or the standard or the medium) in an injection volume equivalent to 0.1 ml/10g p.c. (10ml/kg). If an antagonist such as Nalaxone or N-methyl-Levallorphan was used, it was administered intra-peritoneally 20 minutes before the compound (or the standard, or the medium) was administered. The injection volume was also 0.1 ml/10g p.c. The dose of the antagonist was 10 mg/kg.
The mice were individually evaluated for reaction time on the hot plate. The temperature of the hot plate (Sorel, model DS37) was set at 55°C. […] The mice may be observed at different time intervals after administration of the compound (or medium, or standard). The time intervals may be 30, 60 or 120 minutes (or other).
For each time reading, the average reaction time of the control group was multiplied by 1.5. The reaction time of each treated mouse was compared to the "control average X 1.5.". […] The number of analgesic mice in a group determined the analgesic percentage of the compound for this reading.

[3] = degradation on exposure to brush border kidney membranes; assay type: in vitro ADME; conditions: exposed to brushborder kidney membranes
From the text: Many of the compounds listed in Table 1 show good µ-receptor binding but show weak analgesic effect in the mouse writhing assay. This anomaly may be due to rapid proteolysis, rapid clearence, or both. […] These three compounds are H-Tyr-D-Nva-Phe-Phe-NH2 (BCH2462), H-Tyr-D-Ser-Phe-Phe-NH2 (BCH2463), and H-Tyr-D-Arg-Phe-Phe-NH2 (BCH2687).
The effects of inhibition of proteolytic metabolism of BCH2463 by the inhibitor DL-Thiorphan has been studied and also the metabolic breakdown of BCH2463 mediated by brush border kidney membranes. The data obtained indicate that the kidney may be the principal site of clearance and metabolism for the compound BCH2463. From Figure 2, it appears that the endopeptidase enzyme EC24-11, which is inhibited by DL-thiorphan, is the preliminary mediator of BCH2463 proteolysis by brush border kidney extract.

[4] = system: mice; assay: lethality / safety after i.v. or s.c. administration; assay type: in vivo
Experimental: Therefore, the desired route of administration for these compounds is subcutaneous. Thus, the structural paradigm exemplified by BCH1774 can be modified while maintaining exclusion from the central nervous system even at doses as high as 100 mg kg^-1 s.c. and the deleterious i.v. toxicity can be minimized. Thus BCH2463 is not lethal to mice at doses at least as high as 20 mg kg^-1 (i.v.).

SMILES | duration in vivo of analgesic effects ([1]; 20 mg/kg s.c. of BCH1774 compared with 30 mg/kg s.c. of BCH2463 (Figure 3)) | ED50 value [1] | central analgesic effect [2] | time within which rapidly degraded [3] [min] | lethal effects upon mice ([4]; 1-5 mg kg^-1 i.v. bolus dose) | peripheral analgesia [1] | reaction time ([2]; Figs. 1C, 1D, dose not given) | ED50 ([1]; mouse s.c., at 20 minutes post administration (Figure 2)) [mg/kg] | reaction time ([2]; mice treated with 100 mg/kg (Fig 1B), control approximately 7 seconds) | lethal effects upon mice ([4]; doses up to 20 mg kg^-1 i.v.)
C[C@@H](NC(=O)[C@@H](N)Cc1ccc(O)cc1)C(=O)N[C@@H](Cc1ccccc1)C(=O)N[C@@H](Cc1ccccc1)C(N)=O [BCH1774, H-Tyr-D-Ala-Phe-Phe-NH2] (H-Y[dA]FF-NH2) | lasted longer than for BCH2463 | 1.4 | lack of analgesic effect | 15 to 30 | exhibited lethal effects |  |  |  |  | 
CCC[C@@H](NC(=O)[C@@H](N)Cc1ccc(O)cc1)C(=O)N[C@@H](Cc1ccccc1)C(=O)N[C@@H](Cc1ccccc1)C(N)=O [BCH2462, H-Tyr-D-Nva-Phe-Phe-NH2] (H-Y[dNva]FF-NH2) |  | 2.7 | No central analgesic effect was observed |  | exhibited lethal effects | exhibit peripheral analgesia | approximately 8 seconds |  |  | 
NC(=O)[C@H](Cc1ccccc1)NC(=O)[C@H](Cc1ccccc1)NC(=O)[C@@H](CO)NC(=O)[C@@H](N)Cc1ccc(O)cc1 [BCH2463, H-Tyr-D-Ser-Phe-Phe-NH2] (H-Y[dS]FF-NH2) |  | 0.5 | No central analgesic effect was observed |  |  | exhibit peripheral analgesia |  | 0.5 | about 9 seconds | did not exhibit any lethal effects
N=C(N)NCCC[C@@H](NC(=O)[C@@H](N)Cc1ccc(O)cc1)C(=O)N[C@@H](Cc1ccccc1)C(=O)N[C@@H](Cc1ccccc1)C(N)=O [BCH2687, H-Tyr-D-Arg-Phe-Phe-NH2] (H-Y[dR]FF-NH2) |  | 0.5 | No central analgesic effect was observed |  |  | exhibit peripheral analgesia | approximately 8 seconds |  |  | 
